US10093670B2, “Azabenzimidazole derivative having AMPK-activating activity” (Shionogi & Co., Ltd., priority 2011, dated 2018)

Experiments:
Human AMPK α2β2γ1 = molecular target: T1, Human AMPK α2β2γ1 (Homo sapiens, UniProt O43741+P54646); test: Evaluation of AMPK activator, Test Example 2 (CaMKK2-phosphorylated enzyme, mobility-shift kinase assay); format: biochemical; conditions: for EC150 (compound concentration showing 150% relative to the control (100%)): human AMPK α2β2γ1 phosphorylated by CaMKK2, 25° C., 2 hours; for Emax: human AMPK α2β2γ1 phosphorylated by CaMKK2, relative to control (100%), read-out: Emax (maximum rate of increase in activity within the measurement range)
T1 construct: The full length cDNAs of human AMPK β2 (NM_005399.3) and human AMPK α2 (NM_006252.3) were inserted; the full length cDNA of human AMPK γ1 (NM_002733.3) had been inserted into pET28b(+); 6xHis (N); made in house; host or cells: Escherichia coli BL21 CodonPlus (DE3)-RIL (AMPK); BL21 Star (DE3) (CaMKKβ)
Description: The full length cDNAs of human AMPK β2 (NM_005399.3) and human AMPK α2 (NM_006252.3) were inserted into the MCS1 and MCS2 of the pETDuet-1 vector to prepare a human AMPK β2 and human AMPK α2 (6× His tag at the 5′ terminus) expressing plasmid. The plasmid was contransfected with an expression plasmid, in which the full length cDNA of human AMPK γ1 (NM_002733.3) had been inserted into pET28b(+), into BL21 CodonPlus (DE3)-RIL to obtain an expression strain. The expression strain was cultured in TB medium, followed by induction with 0.5 mM IPTG, and cultured at 25° C. for 3 hours and then harvested. After ultrasonication, supernatant was collected and applied to Histrap FF column (GE) and RESOUECE Q column (GE) to prepare 12.5 mg of purified sample containing three types of subunit from 1.8 L of broth.
An expression vector, in which the full length cDNA of human CAMKK β (NM_172226.1) had been inserted into pGEX-6P-3, was transfected into BL21 Star (DE3). The expression strain was cultured in TB medium, followed by induction with 0.5 mM IPTG, and cultured at 25° C. for 3 hours and then harvested. After ultrasonication, supernatant was collected and applied to GSTrap FF column (GE) to prepare 14 mg of GST-fused CAMKK β from 720 ml of broth.
Evaluation Method of an Activator for AMP-activated Protein Kinase (AMPK) (Test Example 2)
Thus, phosphorylation treatment was carried out as pretreatment.
Human AMPK α2β2γ1 in an amount to give a conversion rate of approximately 10% by reaction for 2 hours, and CaMKK2 in an amount capable of sufficiently imparting activity to AMPK for one hour were mixed in a buffer solution consisting of a 50 mM HEPES-NaOH buffer solution (pH 7.0), 100 mM NaCl, 5 mM magnesium chloride, 0.1% bovine serum albumin, 0.2 mM sodium orthovanadate(V), 1 mM ethylene glycol-bis(2-aminoethyl ether)-N,N,N′,N′-tetraacetic acid (EGTA), 5 mM disodium β-glycerophosphate, 1 mM dithiothreitol and 0.2 mM ATP, and the obtained liquid was left to stand at 25° C. for 1 to 1.5 hours to sufficiently phosphorylate AMPK.
After that, to the enzyme liquid, which had been subjected to phosphorylation treatment, a compound dissolved in DMSO was added so as to have a 1% DMSO concentration. The obtained liquid was left to stand for 10 minutes.
To the liquid, a substrate solution consisting of a 50 mM HEPES-NaOH buffer solution (pH 7.0), 100 mM NaCl, 10 mM magnesium chloride, 0.1% bovine serum albumin, 0.2 mM sodium orthovanadate(V), 1 mM ethylene glycol-bis(2-aminoethyl ether)-N,N,N′,N′-tetraacetic acid (EGTA), 5 mM disodium β-glycerophosphate, 2 mM dithiothreitol, 0.4 mM ATP and 3 μM FL-Peptide 7 (manufactured by Caliper Life Sciences, Inc.) was added in equal amount (10 μl in total). The obtained liquid was allowed to react at 25° C. for 2 hours, and 10 μl of 20 mM EDTA was then added thereto to stop the reaction.
(§1) To detect phosphorylated fluorescent substrates, the reaction liquid was applied to a measuring device, LabChip EZ Reader II manufactured by Caliper Life Science, Inc., for detecting fluorescence by using differences in mobility due to differences in charge. The setting conditions for the device were pressure, −1.5 PSI; upstream voltage, −2250 V; downstream voltage, −400 V; post sample buffer sip time, 40 seconds; final delay, 120 seconds; and peak order, Product First.
(§2) A conversion rate was calculated from the peak heights of the resulting substrate and product. The conversion rate when not containing a compound was used as a control, and a concentration dependent curve was made by plotting the rate of increase in activity to the control at each concentration of a compound.

human AMPK α1β1γ1 enzyme = molecular target: T2, human AMPK α1β1γ1 enzyme (Homo sapiens, UniProt Q13131+Q9Y478); test: Evaluation of AMPK activator, Test Example 1 (mobility-shift kinase assay, FL-Peptide 7); format: biochemical; conditions: for EC150 (compound concentration showing 150% relative to the control (100%)): human AMPK α1β1γ1, 25° C., 2 hours, 0.2 mM ATP final; for Emax: read-out: Emax (maximum rate of increase in activity within the measurement range)
T2 construct: purchased Carna Biosciences, Inc
Description: The obtained liquid was left to stand for 10 minutes.
The obtained liquid was allowed to react at 25° C. for 2 hours, and 10 μl of 20 mM EDTA was then added thereto to stop the reaction.
as §1, §2

[1] = human AMPK α1β1γ1, relative to control (100%)

T1 sequence (P54646 whole entry): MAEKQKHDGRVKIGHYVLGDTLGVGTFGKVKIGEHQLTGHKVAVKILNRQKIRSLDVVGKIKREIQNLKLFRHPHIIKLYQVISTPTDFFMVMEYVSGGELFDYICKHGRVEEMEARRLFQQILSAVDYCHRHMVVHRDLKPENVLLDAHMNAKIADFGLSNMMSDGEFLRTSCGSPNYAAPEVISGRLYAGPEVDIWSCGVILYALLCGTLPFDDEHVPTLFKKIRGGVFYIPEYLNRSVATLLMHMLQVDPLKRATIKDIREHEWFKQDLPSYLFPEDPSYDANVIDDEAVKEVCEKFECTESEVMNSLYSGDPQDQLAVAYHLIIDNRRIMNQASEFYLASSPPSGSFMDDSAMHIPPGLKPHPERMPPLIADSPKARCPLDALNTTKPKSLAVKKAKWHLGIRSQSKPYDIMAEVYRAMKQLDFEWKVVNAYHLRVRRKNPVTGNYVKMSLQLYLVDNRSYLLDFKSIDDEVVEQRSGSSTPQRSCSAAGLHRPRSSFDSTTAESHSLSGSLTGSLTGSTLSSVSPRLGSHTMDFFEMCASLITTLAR
T1 sequence (O43741 whole entry): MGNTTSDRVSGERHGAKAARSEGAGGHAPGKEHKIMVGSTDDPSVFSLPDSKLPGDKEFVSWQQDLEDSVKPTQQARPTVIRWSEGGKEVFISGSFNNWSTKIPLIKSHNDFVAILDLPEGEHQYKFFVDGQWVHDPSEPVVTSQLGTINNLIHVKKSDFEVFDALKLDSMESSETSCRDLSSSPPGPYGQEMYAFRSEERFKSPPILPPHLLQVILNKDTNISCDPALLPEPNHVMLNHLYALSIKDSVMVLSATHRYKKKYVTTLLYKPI
T1 sequence (P54619 whole entry partner): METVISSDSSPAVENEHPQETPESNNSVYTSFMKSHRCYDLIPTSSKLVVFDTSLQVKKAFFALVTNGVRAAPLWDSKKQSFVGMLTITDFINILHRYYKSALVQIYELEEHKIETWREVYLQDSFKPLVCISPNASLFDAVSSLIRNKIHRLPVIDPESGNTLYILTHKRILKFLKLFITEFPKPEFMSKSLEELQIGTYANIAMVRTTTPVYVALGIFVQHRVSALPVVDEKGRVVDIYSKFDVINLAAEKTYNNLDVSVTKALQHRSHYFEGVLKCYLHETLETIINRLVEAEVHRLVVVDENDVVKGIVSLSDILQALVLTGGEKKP
T2 sequence (Q13131 10-559 limits assumed): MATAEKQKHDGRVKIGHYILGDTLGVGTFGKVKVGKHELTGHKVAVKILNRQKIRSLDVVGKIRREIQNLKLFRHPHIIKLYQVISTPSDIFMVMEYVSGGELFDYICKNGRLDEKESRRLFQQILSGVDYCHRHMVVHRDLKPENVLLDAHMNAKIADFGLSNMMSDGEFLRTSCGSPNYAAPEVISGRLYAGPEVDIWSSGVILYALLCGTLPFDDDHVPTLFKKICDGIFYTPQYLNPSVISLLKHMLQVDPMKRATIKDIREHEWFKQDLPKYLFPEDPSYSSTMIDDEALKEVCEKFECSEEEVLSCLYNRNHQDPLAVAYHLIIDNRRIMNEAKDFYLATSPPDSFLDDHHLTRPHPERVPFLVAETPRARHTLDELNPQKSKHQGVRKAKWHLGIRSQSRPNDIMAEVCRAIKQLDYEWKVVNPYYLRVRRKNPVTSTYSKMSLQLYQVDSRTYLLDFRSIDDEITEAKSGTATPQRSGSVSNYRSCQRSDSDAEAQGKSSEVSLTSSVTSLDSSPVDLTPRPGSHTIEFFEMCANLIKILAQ
T2 sequence (Q9Y478 whole entry): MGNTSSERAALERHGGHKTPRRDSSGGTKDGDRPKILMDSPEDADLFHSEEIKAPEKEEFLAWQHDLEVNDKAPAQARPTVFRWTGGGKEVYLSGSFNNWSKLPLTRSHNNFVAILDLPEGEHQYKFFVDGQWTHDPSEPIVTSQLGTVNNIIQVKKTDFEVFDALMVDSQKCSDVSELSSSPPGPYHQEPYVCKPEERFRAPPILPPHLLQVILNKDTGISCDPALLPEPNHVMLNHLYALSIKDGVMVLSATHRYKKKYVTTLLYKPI
T2 sequence (P54619 whole entry partner): as the sequence (P54619 whole entry partner) above

Compound | EC150 (compound concentration showing 150% relative to the control (100%)) (Human AMPK α2β2γ1) [nM] | Emax (Human AMPK α2β2γ1) [%] | EC150 (compound concentration showing 150% relative to the control (100%)) (human AMPK α1β1γ1 enzyme) [nM] | Emax (human AMPK α1β1γ1 enzyme; [1]) [%] | Emax (maximum rate of increase in activity within the measurement range) (human AMPK α1β1γ1 enzyme; [1]) [%]
CN(C)C(=O)[C@]1(O)CC[C@@H](Oc2nc3nc(-c4ccc(C5=CCC(C(=O)O)CC5)cc4)c(Cl)cc3[nH]2)CC1 (stereo partly drawn) [Compound I-3-54] | 2.2 | 373 | 270 | 201 | –
CC(=O)NC1CC=C(c2ccc(-c3nc4nc(O[C@H]5CC[C@H](C(C)(C)CO)CC5)[nH]c4cc3Cl)cc2)CC1 (stereo partly drawn) [Compound I-3-86] | 11 | 259 | 23 | 277 | –
CC(C)(C(=O)O)C1CCC(Oc2nc3nc(-c4ccc(C5(CO)CC5)cc4)c(Cl)cc3[nH]2)CC1 (stereo not drawn) [Compound I-3-37] | 5 | 237 | 5.6 | 257 | –
CC(C)(C(=O)O)[C@]1(F)CC[C@@H](Oc2nc3nc(-c4ccc(N5CCOCC5)cc4)c(Cl)cc3[nH]2)CC1 [Compound I-3-99] | 15 | 261 | 3.7 | 310 | –
CC(C)(C(=O)O)[C@H]1CC[C@H](Oc2nc3nc(-c4c(F)cc(N5CCOCC5)cc4F)ccc3[nH]2)CC1 [Compound I-3-40] | 69 | 228 | 23 | 244 | –
CC(C)(C(=O)O)[C@]1(O)CC[C@@H](Oc2nc3nc(-c4ccc(N5CCOCC5)cc4)c(Cl)cc3[nH]2)CC1 [Compound I-3-24] | 11 | 271 | 0.79 | – | 318
CN(C)C(=O)[C@H]1C[C@@H](Oc2nc3nc(-c4ccc(C5=CCC(C(=O)O)CC5)cc4)c(Cl)cc3[nH]2)C1 (stereo partly drawn) [Compound I-2-129] | – | 339 | – | 276 | –
CC(C)(C(=O)O)[C@H]1CC[C@H](Oc2nc3nc(-c4ccc(C5=CCN(C(=O)CO)CC5)cc4)c(Cl)cc3[nH]2)CC1 [Compound I-3-90] | 21 | 274 | 17 | 320 | –
CC(=O)NC1CC=C(c2ccc(-c3nc4nc(O[C@H]5CC[C@H](CC(=O)O)CC5)[nH]c4cc3Cl)cc2)CC1 (stereo partly drawn) [Compound I-2-76] | 85 | 175 | 14 | 232 | –
CC(C)(C(=O)O)[C@]1(O)CC[C@@H](Oc2nc3nc(-c4ccc(N5CCCC5)cc4)c(Cl)cc3[nH]2)CC1 [Compound I-3-30] | 12 | 271 | 0.49 | 345 | –
CC(C)(C(=O)O)[C@]1(O)CC[C@@H](Oc2nc3nc(-c4c(F)cc(N5CCOCC5)cc4F)ccc3[nH]2)CC1 [Compound I-3-62] | – | – | 22 | 333 | –
O=C(O)c1ccc(-c2ccc(-c3nc4nc(O[C@H]5C[C@@H](C(=O)N6CC(O)C6)C5)[nH]c4cc3Cl)cc2)cc1 [Compound I-3-115] | – | – | 23 | 260 | –
NC(=O)[C@H]1CC[C@H](Oc2nc3nc(-c4ccc(N5CCOCC5)cc4)c(Cl)cc3[nH]2)CC1 [Compound I-2-33] | – | – | 70 | 236 | –
O=C(O)[C@H]1CC[C@H](Oc2nc3nc(-c4ccc(-c5ccccc5O)cc4)c(Cl)cc3[nH]2)CC1 [Compound I-2-60] | – | – | 49 | 205 | –
CC(C)(C(=O)O)[C@H]1CC[C@H](Oc2nc3nc(-c4ccc(-c5ccc(C(=O)N6CCOCC6)cc5)cc4)c(Cl)cc3[nH]2)CC1 [Compound I-3-108] | – | – | 8.2 | 291 | –
CC(C)(C(=O)O)C1CCC(Oc2nc3nc(-c4ccc(N5CCCC5)cc4)c(Cl)cc3[nH]2)CC1 (stereo not drawn) [Compound I-3-44] | – | – | 7.6 | 275 | –
Oc1cc(COc2nc3nc(-c4ccc(N5CCOCC5)cc4)c(Cl)cc3[nH]2)on1 [Compound I-1-12] | – | – | 320 | 263 | –
O=C(COc1nc2nc(-c3ccc(N4CCOCC4)cc3)c(Cl)cc2[nH]1)N1CCC(F)(F)CC1 [Compound I-1-21] | – | – | 730 | 284 | –
O=C(c1ccc(-c2ccc(-c3nc4nc(O[C@H]5CC[C@H](C(=O)O)CC5)[nH]c4cc3Cl)cc2)cc1)N1CCC(O)CC1 [Compound I-3-104] | – | – | 21 | 203 | –
O=C(O)COc1nc2nc(-c3ccc(N4CCOCC4)cc3)c(Cl)cc2[nH]1 [Compound I-1-10] | – | – | 390 | 270 | –
CC(C)(C(=O)O)C1CCC(Oc2nc3nc(-c4ccc(C5=CCOCC5)cc4)c(Cl)cc3[nH]2)CC1 (stereo not drawn) [Compound I-3-93] | – | – | 9.6 | 301 | –
O=C(O)C[C@H]1CC[C@H](Oc2nc3nc(-c4ccc(N5CCOCC5)cc4)c(Cl)cc3[nH]2)CC1 [Compound I-2-40] | – | – | 51 | 293 | –
CC(Oc1nc2nc(-c3ccc(C4=CCC(C(=O)O)CC4)cc3)c(Cl)cc2[nH]1)C(N)=O (stereo not drawn) [Compound I-3-14] | – | – | 130 | 232 | –
O=C(O)CN1CCC(Oc2nc3nc(-c4ccc(N5CCOCC5)cc4)c(Cl)cc3[nH]2)CC1.O=CO [Compound I-1-11] | – | – | 2100 | 238 | –
CC(C)(C(=O)O)[C@]1(O)CC[C@@H](Oc2nc3nc(-c4ccc(-c5ccccc5)cc4)c(Cl)cc3[nH]2)CC1 [Compound I-3-66] | – | – | 3.4 | 389 | –
CC(Oc1nc2nc(-c3ccc(N4CCOCC4)cc3)c(Cl)cc2[nH]1)c1noc(=O)[nH]1 (stereo not drawn) [Compound I-1-28] | – | – | 210 | 231 | –
CC(Oc1nc2nc(-c3ccc(N4CCOCC4)cc3)c(Cl)cc2[nH]1)[C@H]1CC[C@H](C(=O)O)CC1 (stereo partly drawn) [Compound I-2-88] | – | – | 65 | 288 | –
